Test results: PMC7854729 (Nature Communications, 2021)
Values joined by “and” are separate entries in the source; they are usually repeats but may differ in a detail not shown here. Equal values may be shown once. Read-outs that look alike come from different tables or passages of the source. Where a SMILES comes first, the peptide text is derived from it.

Key:
[1] = biological target: T1, PLpro-WT (Severe acute respiratory syndrome coronavirus 2, UniProt P0DTD1); assay type: biochemical
T1 construct: PLpro is a domain of Nsp3—a large multidomain protein; made in house; host or cells: E. coli BL21(DE3)-Gold

[2] = tested on: SARS-CoV-2; experiment: microbe, parasite or virus in culture; assay type: cell-based, SARS-CoV-2 (nCoV/Washington/1/2020) in Vero E6 cells; details: for inhibition of virus replication: Vero E6, SARS-CoV-2; for Percent Spike Positive Cells: relative to DMSO treated cells, single replicates
[3] = biological target: SARS-CoV-2 PLpro (Severe acute respiratory syndrome coronavirus 2, UniProt P0DTD1); experiment: biochemical

With `CC(=O)N[C@@H](CC(C)C)C(=O)N[C@@H](CCCCN)C(=O)NCC(=O)NCC(=O)Nc1ccc2c(C)cc(=O)oc2c1` [probe] (HELM PEPTIDE1{[ac].L.K.G.G.[Cc1cc(=O)oc2cc(N[*:1])ccc12]}$$$$V2.0) the fluorescence ([1]; 0.1 M PLP, time point 8) was 103 and 110 and 118, the “fluorescence normalised to probe only” value ([1]; 0.1 M PLP, time point 8) was 2.146 and 2.292 and 2.458 and the fluorescence ([1]; 0.1 M PLP, time point 9) was 107 and 115 and 122. The “fluorescence normalised to probe only” value ([1]; 0.1 M PLP, time point 9) was 2.229 and 2.396 and 2.542, the fluorescence ([1]; 0.1 M PLP, time point 10) was 111 and 120 and 127 and the “fluorescence normalised to probe only” value ([1]; 0.1 M PLP, time point 10) was 2.3125 and 2.5 and 2.646. The fluorescence ([1]; 0.1 M PLP, time point 11) was 115 and 124 and 132, the “fluorescence normalised to probe only” value ([1]; 0.1 M PLP, time point 11) was 2.396 and 2.583 and 2.75 and the fluorescence ([1]; 0.1 M PLP, time point 12) was 115 and 129 and 133. For the same compound, the “fluorescence normalised to probe only” value ([1]; 0.1 M PLP, time point 12) was 2.396 and 2.6875 and 2.771, the fluorescence ([1]; 0.1 M PLP, time point 13) was 120 and 131 and 139 and the “fluorescence normalised to probe only” value ([1]; 0.1 M PLP, time point 13) was 2.5 and 2.729 and 2.896. The fluorescence ([1]; 0.1 M PLP, time point 14) was 123, the “fluorescence normalised to probe only” value ([1]; 0.1 M PLP, time point 14) was 2.5625 and 2.833 and 2.979 and the fluorescence ([1]; 0.2 M PLP, time point 8) was 260 and 288 and 278. For the same compound, the “fluorescence normalised to probe only” value ([1]; 0.2 M PLP, time point 8) was 5.417 and 6 and 5.792, the fluorescence ([1]; 0.2 M PLP, time point 9) was 295 and 313 and 300 and the “fluorescence normalised to probe only” value ([1]; 0.2 M PLP, time point 9) was 6.146 and 6.521 and 6.25. The fluorescence ([1]; 0.2 M PLP, time point 10) was 321 and 335 and 319, the “fluorescence normalised to probe only” value ([1]; 0.2 M PLP, time point 10) was 6.6875 and 6.979 and 6.646 and the fluorescence ([1]; 0.2 M PLP, time point 11) was 337 and 357 and 345. The “fluorescence normalised to probe only” value ([1]; 0.2 M PLP, time point 11) was 7.021 and 7.4375 and 7.1875, the fluorescence ([1]; 0.2 M PLP, time point 12) was 357 and 377 and 368 and the “fluorescence normalised to probe only” value ([1]; 0.2 M PLP, time point 12) was 7.4375 and 7.854 and 7.667. The fluorescence ([1]; 0.2 M PLP, time point 13) was 379 and 400 and 381, the “fluorescence normalised to probe only” value ([1]; 0.2 M PLP, time point 13) was 7.896 and 8.333 and 7.9375 and the “fluorescence normalised to probe only” value ([1]; 0.2 M PLP, time point 14) was 8.167 and 8.792 and 8.417. The fluorescence ([1]; 0.3 M PLP, time point 8) was 443 and 452 and 474, the “fluorescence normalised to probe only” value ([1]; 0.3 M PLP, time point 8) was 9.229 and 9.417 and 9.875 and the fluorescence ([1]; 0.3 M PLP, time point 9) was 481 and 493 and 520. For the same compound, the “fluorescence normalised to probe only” value ([1]; 0.3 M PLP, time point 9) was 10.0208 and 10.2708 and 10.8333, the fluorescence ([1]; 0.3 M PLP, time point 10) was 519 and 530 and 558 and the “fluorescence normalised to probe only” value ([1]; 0.3 M PLP, time point 10) was 10.8125 and 11.0417 and 11.625. For the same compound, the fluorescence ([1]; 0.3 M PLP, time point 11) was 560 and 573 and 600, the “fluorescence normalised to probe only” value ([1]; 0.3 M PLP, time point 11) was 11.6667 and 11.9375 and 12.5 and the fluorescence ([1]; 0.3 M PLP, time point 12) was 594 and 609 and 643. The “fluorescence normalised to probe only” value ([1]; 0.3 M PLP, time point 12) was 12.375 and 12.6875 and 13.3958, the fluorescence ([1]; 0.3 M PLP, time point 13) was 632 and 646 and 681 and the “fluorescence normalised to probe only” value ([1]; 0.3 M PLP, time point 13) was 13.1667 and 13.4583 and 14.1875. The fluorescence ([1]; 0.3 M PLP, time point 14) was 671 and 682 and 717, the “fluorescence normalised to probe only” value ([1]; 0.3 M PLP, time point 14) was 13.9792 and 14.2083 and 14.9375 and the fluorescence ([1]; 0.5 M PLP, time point 8) was 891 and 894 and 883. The “fluorescence normalised to probe only” value ([1]; 0.5 M PLP, time point 8) was 18.5625 and 18.625 and 18.3958, the fluorescence ([1]; 0.5 M PLP, time point 9) was 972 and 978 and 964 and the “fluorescence normalised to probe only” value ([1]; 0.5 M PLP, time point 9) was 20.25 and 20.375 and 20.0833. For the same compound, the fluorescence ([1]; 0.5 M PLP, time point 10) was 1053 and 1058 and 1040, the “fluorescence normalised to probe only” value ([1]; 0.5 M PLP, time point 10) was 21.9375 and 22.0417 and 21.6667 and the fluorescence ([1]; 0.5 M PLP, time point 11) was 1137 and 1139 and 1118. The “fluorescence normalised to probe only” value ([1]; 0.5 M PLP, time point 11) was 23.6875 and 23.7292 and 23.2917, the fluorescence ([1]; 0.5 M PLP, time point 12) was 1204 and 1214 and 1189 and the “fluorescence normalised to probe only” value ([1]; 0.5 M PLP, time point 12) was 25.0833 and 25.2917 and 24.7708. The fluorescence ([1]; 0.5 M PLP, time point 13) was 1275 and 1287 and 1260, the “fluorescence normalised to probe only” value ([1]; 0.5 M PLP, time point 13) was 26.5625 and 26.8125 and 26.25 and the fluorescence ([1]; 0.5 M PLP, time point 14) was 1338 and 1358 and 1327. For the same compound, the “fluorescence normalised to probe only” value ([1]; 0.5 M PLP, time point 14) was 27.875, the fluorescence ([1]; 1.0 M PLP, time point 8) was 1812 and 1755 and 1796 and the “fluorescence normalised to probe only” value ([1]; 1.0 M PLP, time point 8) was 37.75 and 36.5625 and 37.4167. For the same compound, the fluorescence ([1]; 1.0 M PLP, time point 9) was 1958 and 1902 and 1937, the “fluorescence normalised to probe only” value ([1]; 1.0 M PLP, time point 9) was 40.7917 and 39.625 and 40.3542 and the fluorescence ([1]; 1.0 M PLP, time point 10) was 2101 and 2025 and 2064. The “fluorescence normalised to probe only” value ([1]; 1.0 M PLP, time point 10) was 43.7708 and 42.1875 and 43, the fluorescence ([1]; 1.0 M PLP, time point 11) was 2228 and 2143 and 2197 and the “fluorescence normalised to probe only” value ([1]; 1.0 M PLP, time point 11) was 46.4167 and 44.6458 and 45.7708. The fluorescence ([1]; 1.0 M PLP, time point 12) was 2329 and 2259 and 2313, the “fluorescence normalised to probe only” value ([1]; 1.0 M PLP, time point 12) was 48.5208 and 47.0625 and 48.1875 and the fluorescence ([1]; 1.0 M PLP, time point 13) was 2450 and 2363 and 2423. The “fluorescence normalised to probe only” value ([1]; 1.0 M PLP, time point 13) was 51.0417 and 49.2292 and 50.4792 and the fluorescence ([1]; 1.0 M PLP, time point 14) was 2548 and 2459 and 2512.

With `CCCCNC(=O)Nc1ccc(C)c(C(=O)N[C@H](C)c2cccc3ccccc23)c1` [Compound 5, 5-(butylcarbamoylamino)-2-methyl-N-[(1R)-1-naphthalen-1-ylethyl]benzamide] the EC50 ([2]; Severe acute respiratory syndrome coronavirus 2, Vero C1008, 24 h, read-out: EC50) was 2.5 µM, the “inhibition of virus replication” value [2] was “inhibiting virus replication” and the “Percent Spike Positive Cells” value ([2]; [Drug] 0.1 uM) was 115%. For the same compound, the “Percent Spike Positive Cells” value ([2]; [Drug] 1 uM) was 115%, the “Percent Spike Positive Cells” value ([2]; [Drug] 10 uM) was 69% and 115% and 92% and the IC50 ([3]; IC50) was 16.8 µM and 32.8 µM. For the same compound, the “PLpro assay signal (source data Figure 2, single replicates)” value (shortened to “PLpro assay signal”) ([3]; Log(M) -3.30103, listed as 5 (Snyder539)) was 225 and 216 and 235, the “PLpro assay signal” value ([3]; Log(M) -3.60206, listed as 5 (Snyder539)) was 256 and 292 and 307 and the “PLpro assay signal” value ([3]; Log(M) -4, listed as 5 (Snyder539)) was 289 and 427 and 447. For the same compound, the “PLpro assay signal” value ([3]; Log(M) -4.30103, listed as 5 (Snyder539)) was 464 and 626 and 554, the “PLpro assay signal” value ([3]; Log(M) -4.69897, listed as 5 (Snyder539)) was 802 and 736 and 827 and the “PLpro assay signal” value ([3]; Log(M) -5, listed as 5 (Snyder539)) was 945 and 917 and 894. For the same compound, the “PLpro assay signal” value ([3]; Log(M) -5.39794, listed as 5 (Snyder539)) was 1120 and 1187 and 1137, the “PLpro assay signal” value ([3]; Log(M) -5.69897, listed as 5 (Snyder539)) was 1190 and 1202 and 1324 and the “PLpro assay signal” value ([3]; Log(M) -6.09691, listed as 5 (Snyder539)) was 1485 and 1470 and 1518. The “PLpro assay signal” value ([3]; Log(M) -6.39794, listed as 5 (Snyder539)) was 1389 and 1269 and 1337.

With `Cc1ccc(NC(=O)NC(N)=O)cc1C(=O)N[C@H](C)c1cccc2ccccc12` [Compound 2, 5-carbamylurea-2-methyl-N-[(1R)-1-naphthalen-1-ylethyl]benzamide] the “inhibition of virus replication” value [2] was “failed”, the “PLpro assay signal” value ([3]; Log(M) -3.69897, listed as 2 (Snyder495)) was 60 and 59 and 86 and the “PLpro assay signal” value ([3]; Log(M) -4, listed as 2 (Snyder495)) was 70 and 66 and 64. The “PLpro assay signal” value ([3]; Log(M) -4.39794, listed as 2 (Snyder495)) was 92 and 85 and 99, the “PLpro assay signal” value ([3]; Log(M) -4.69897, listed as 2 (Snyder495)) was 136 and 126 and 144 and the “PLpro assay signal” value ([3]; Log(M) -5.09691, listed as 2 (Snyder495)) was 203 and 179 and 181. For the same compound, the “PLpro assay signal” value ([3]; Log(M) -5.39794, listed as 2 (Snyder495)) was 314 and 305 and 289, the “PLpro assay signal” value ([3]; Log(M) -5.79588, listed as 2 (Snyder495)) was 365 and 343 and 315 and the “PLpro assay signal” value ([3]; Log(M) -6.09691, listed as 2 (Snyder495)) was 476 and 447 and 368. The “PLpro assay signal” value ([3]; Log(M) -6.49485, listed as 2 (Snyder495)) was 414 and 419 and 416, the “PLpro assay signal” value ([3]; Log(M) -6.79588, listed as 2 (Snyder495)) was 421 and 453 and 465 and the IC50 ([3]; pH 7.3, read-out: IC50) was 5.1 µM.
